Assay results reported in PMC5218480 (PLoS ONE, 2017).

Tested on: MV-4-11 cells
Test: Gene expression microarray analysis (Affymetrix PrimeView) and GSEA
Type: cell-based, human
Parameters: RFU PODN (11730768_x_at) / Fold change /veh PODN (11730768_x_at) / RFU LINC00158 (11744669_a_at) / Fold change /veh LINC00158 (11744669_a_at) / RFU DUSP10 (11751237_a_at) / Fold change /veh DUSP10 (11751237_a_at) / RFU ID3 (11757404_x_at) / Fold change /veh ID3 (11757404_x_at) / RFU PLEKHG5 (11737974_s_at) / Fold change /veh PLEKHG5 (11737974_s_at) / RFU LRRC4B (11730491_at) / Fold change /veh LRRC4B (11730491_at) / RFU GIMAP4 (11747438_a_at) / Fold change /veh GIMAP4 (11747438_a_at) / RFU KRT8 (11758183_x_at) / Fold change /veh KRT8 (11758183_x_at) / RFU CNN1 (11734310_a_at) / Fold change /veh CNN1 (11734310_a_at) / RFU VPS37D (11726825_at) / Fold change /veh VPS37D (11726825_at) / RFU C10orf10 (11716522_x_at) / Fold change /veh C10orf10 (11716522_x_at) / RFU KIR2DL2 /// KIR2DL4 /// KIR2DL5A /// KIR2DL5B /// KIR2DS1 /// KIR2DS2 /// KIR2DS3 /// KIR2DS4 /// KIR3DL3 /// KIR3DL3 /// KIR3DS1 (11738374_at) / Fold change /veh KIR2DL2 /// KIR2DL4 /// KIR2DL5A /// KIR2DL5B /// KIR2DS1 /// KIR2DS2 /// KIR2DS3 /// KIR2DS4 /// KIR3DL3 /// KIR3DL3 /// KIR3DS1 (11738374_at) / RFU C1QL1 (11718748_at) / Fold change /veh C1QL1 (11718748_at) / RFU TMPRSS4 (11747572_a_at) / Fold change /veh TMPRSS4 (11747572_a_at) / RFU HAMP (11756126_x_at) / Fold change /veh HAMP (11756126_x_at) / RFU RNFT2 (11725882_a_at) / Fold change /veh RNFT2 (11725882_a_at) / RFU NR4A2 (11747474_a_at) / Fold change /veh NR4A2 (11747474_a_at) / RFU ABCC12 (11746883_a_at) / Fold change /veh ABCC12 (11746883_a_at) / RFU TMEM136 (11760407_x_at) / Fold change /veh TMEM136 (11760407_x_at) / RFU CLDN22 /// WWC2 (11732394_at) / Fold change /veh CLDN22 /// WWC2 (11732394_at) / RFU HLA-DPB1 (11760878_x_at) / Fold change /veh HLA-DPB1 (11760878_x_at) / RFU SPINT1 (11716480_a_at) / Fold change /veh SPINT1 (11716480_a_at) / RFU GAP43 (11754022_s_at) / Fold change /veh GAP43 (11754022_s_at) / RFU A4GNT (11735810_at) / Fold change /veh A4GNT (11735810_at) / RFU PRB3 (11715151_x_at) / Fold change /veh PRB3 (11715151_x_at) / RFU TUBB4B (11761932_at) / Fold change /veh TUBB4B (11761932_at) / RFU CAPN14 (11732068_a_at) / Fold change /veh CAPN14 (11732068_a_at) / RFU TMCC2 (11721928_a_at) / Fold change /veh TMCC2 (11721928_a_at) / RFU IRGQ (11745062_a_at) / Fold change /veh IRGQ (11745062_a_at) / RFU FAM174B (11720279_a_at) / Fold change /veh FAM174B (11720279_a_at) / RFU TMPRSS4 (11748680_a_at) / Fold change /veh TMPRSS4 (11748680_a_at) / RFU FAM212B (11763350_a_at) / Fold change /veh FAM212B (11763350_a_at) / RFU PLEKHG5 (11743358_a_at) / Fold change /veh PLEKHG5 (11743358_a_at) / RFU ZSCAN30 (11745921_a_at) / Fold change /veh ZSCAN30 (11745921_a_at) / RFU CMKLR1 (11741424_a_at) / Fold change /veh CMKLR1 (11741424_a_at) / RFU LOC101060620 /// MAPK8IP1 (11723275_at) / Fold change /veh LOC101060620 /// MAPK8IP1 (11723275_at) / RFU SPTSSB (11747773_x_at) / Fold change /veh SPTSSB (11747773_x_at) / RFU PRSS12 (11739890_at) / Fold change /veh PRSS12 (11739890_at) / RFU BIN1 (11741810_x_at) / Fold change /veh BIN1 (11741810_x_at) / RFU WNT11 (11732464_a_at) / Fold change /veh WNT11 (11732464_a_at) / RFU C10orf10 (11716521_a_at) / Fold change /veh C10orf10 (11716521_a_at) / RFU C5orf56 (11738089_at) / Fold change /veh C5orf56 (11738089_at) / RFU CYB561 (11721691_x_at) / Fold change /veh CYB561 (11721691_x_at) / RFU ANKRD19P (11752326_a_at) / Fold change /veh ANKRD19P (11752326_a_at) / RFU OR2T12 /// OR2T33 /// OR2T8 (11738714_s_at) / Fold change /veh OR2T12 /// OR2T33 /// OR2T8 (11738714_s_at) / RFU VCAN (11748164_a_at) / Fold change /veh VCAN (11748164_a_at) / RFU JSRP1 (11732532_at) / Fold change /veh JSRP1 (11732532_at) / RFU KRTAP10-11 (11738290_x_at) / Fold change /veh KRTAP10-11 (11738290_x_at) / RFU MYO3A (11730013_a_at) / Fold change /veh MYO3A (11730013_a_at) / RFU EBF3 (11725865_a_at) / Fold change /veh EBF3 (11725865_a_at) / RFU CAMK2N1 (11719241_x_at) / Fold change /veh CAMK2N1 (11719241_x_at) / RFU C5orf56 (11738088_a_at) / Fold change /veh C5orf56 (11738088_a_at) / RFU OLFML3 (11715873_a_at) / Fold change /veh OLFML3 (11715873_a_at) / RFU LOC100653217 /// NTM (11731650_a_at) / Fold change /veh LOC100653217 /// NTM (11731650_a_at) / RFU MAPK11 (11762145_a_at) / Fold change /veh MAPK11 (11762145_a_at) / RFU FIZ1 (11724087_x_at) / Fold change /veh FIZ1 (11724087_x_at) / RFU OASL (11726364_x_at) / Fold change /veh OASL (11726364_x_at) / RFU SOX15 (11748057_x_at) / Fold change /veh SOX15 (11748057_x_at) / RFU CD79A (11719716_a_at) / Fold change /veh CD79A (11719716_a_at) / RFU HIST1H1D (11736915_at) / Fold change /veh HIST1H1D (11736915_at) / RFU CASKIN2 (11723855_a_at) / Fold change /veh CASKIN2 (11723855_a_at) / RFU LOC730098 (11760151_x_at) / Fold change /veh LOC730098 (11760151_x_at) / RFU OR4N2 (11742367_at) / Fold change /veh OR4N2 (11742367_at) / RFU PRRT2 (11749266_a_at) / Fold change /veh PRRT2 (11749266_a_at) / RFU SNX32 (11753110_a_at) / Fold change /veh SNX32 (11753110_a_at) / RFU CDHR5 (11726645_a_at) / Fold change /veh CDHR5 (11726645_a_at) / RFU RCAN1 (11760418_a_at) / Fold change /veh RCAN1 (11760418_a_at) / RFU FAM167A (11723789_a_at) / Fold change /veh FAM167A (11723789_a_at) / RFU FAM26E (11764081_at) / Fold change /veh FAM26E (11764081_at) / RFU ISYNA1 (11749810_s_at) / Fold change /veh ISYNA1 (11749810_s_at) / RFU ACY1 (11761880_at) / Fold change /veh ACY1 (11761880_at) / RFU 11764098_at / Fold change /veh 11764098_at / RFU SAMD14 (11745864_x_at) / Fold change /veh SAMD14 (11745864_x_at) / RFU NPB (11741838_a_at) / Fold change /veh NPB (11741838_a_at) / RFU TMPRSS6 (11731388_a_at) / Fold change /veh TMPRSS6 (11731388_a_at) / RFU KRTAP10-2 (11738614_at) / Fold change /veh KRTAP10-2 (11738614_at) / RFU ARHGAP8 /// PRR5-ARHGAP8 (11727945_x_at) / Fold change /veh ARHGAP8 /// PRR5-ARHGAP8 (11727945_x_at) / RFU KRTAP5-7 /// NADSYN1 (11734609_at) / Fold change /veh KRTAP5-7 /// NADSYN1 (11734609_at) / RFU RASL12 (11751679_a_at) / Fold change /veh RASL12 (11751679_a_at) / RFU CDKN2B (11736163_a_at) / Fold change /veh CDKN2B (11736163_a_at) / RFU PRF1 (11729649_at) / Fold change /veh PRF1 (11729649_at) / RFU, ZNF638 /// ZNF638-IT1 / Fold change vs veh, ZNF638 /// ZNF638-IT1 / RFU, PANK3 / Fold change vs veh, PANK3 / RFU, SH3YL1 / Fold change vs veh, SH3YL1 / RFU, ZEB2 / Fold change vs veh, ZEB2 / RFU, NRIP1 / Fold change vs veh, NRIP1 / RFU, PTTG1IP / Fold change vs veh, PTTG1IP / RFU, CAPN2 / Fold change vs veh, CAPN2 / RFU, MED14 / Fold change vs veh, MED14 / RFU, SNORA58 / Fold change vs veh, SNORA58 / RFU, C1orf63 / Fold change vs veh, C1orf63 / RFU, LRRFIP1 / Fold change vs veh, LRRFIP1 / RFU, NDUFAF7 / Fold change vs veh, NDUFAF7 / RFU, SLC12A2 / Fold change vs veh, SLC12A2 / RFU, IBTK / Fold change vs veh, IBTK / RFU, ESF1 / Fold change vs veh, ESF1 / Fold change vs veh, TMEM50B / RFU, TAOK1 / Fold change vs veh, TAOK1 / RFU, ACBD3 / Fold change vs veh, ACBD3 / RFU, TMA16 / Fold change vs veh, TMA16 / RFU, RWDD3 / Fold change vs veh, RWDD3 / RFU, BCAT1 / Fold change vs veh, BCAT1 / RFU, EDEM3 / Fold change vs veh, EDEM3 / RFU, TMEM33 / Fold change vs veh, TMEM33 / RFU, WDR75 / Fold change vs veh, WDR75 / RFU, AHCTF1 / Fold change vs veh, AHCTF1 / RFU, TFRC / Fold change vs veh, TFRC / RFU, ZDHHC17 / Fold change vs veh, ZDHHC17 / RFU, NOM1 / Fold change vs veh, NOM1 / RFU, ARL8B / Fold change vs veh, ARL8B / RFU, ZBTB11 / Fold change vs veh, ZBTB11 / RFU, TAMM41 / Fold change vs veh, TAMM41 / RFU, KIAA1704 /// LOC100996395 / Fold change vs veh, KIAA1704 /// LOC100996395 / RFU, ING1 / Fold change vs veh, ING1 / RFU, TRMT61B / Fold change vs veh, TRMT61B / RFU, FUBP3 / Fold change vs veh, FUBP3 / RFU, TP53 / Fold change vs veh, TP53 / RFU, TNKS2 / Fold change vs veh, TNKS2 / RFU, ZFP14 / Fold change vs veh, ZFP14 / RFU, ACTR2 / Fold change vs veh, ACTR2 / RFU, PPP3R1 / Fold change vs veh, PPP3R1 / RFU, PIK3R1 / Fold change vs veh, PIK3R1 / RFU, HNRNPA1 / Fold change vs veh, HNRNPA1 / RFU, RNF170 / Fold change vs veh, RNF170 / RFU, ZNF28 / Fold change vs veh, ZNF28 / RFU, RNGTT / Fold change vs veh, RNGTT / RFU, OGT / Fold change vs veh, OGT / RFU, BRD1 / Fold change vs veh, BRD1 / RFU, MARS / Fold change vs veh, MARS / RFU, ZNF655 / Fold change vs veh, ZNF655 / RFU, FAHD1 / Fold change vs veh, FAHD1 / RFU, BDP1 / Fold change vs veh, BDP1 / RFU, LRRCC1 / Fold change vs veh, LRRCC1 / RFU, ARID1A / Fold change vs veh, ARID1A / RFU, ZNF146 / Fold change vs veh, ZNF146 / RFU, ZNF330 / Fold change vs veh, ZNF330 / RFU, GPN3 / Fold change vs veh, GPN3 / RFU, C9orf123 / Fold change vs veh, C9orf123 / RFU, N4BP2L2 / Fold change vs veh, N4BP2L2 / RFU, ARFIP1 / Fold change vs veh, ARFIP1 / RFU, FAM179B / Fold change vs veh, FAM179B / RFU, BCL10 / Fold change vs veh, BCL10 / RFU, UHRF1BP1L / Fold change vs veh, UHRF1BP1L / RFU, BET1 / Fold change vs veh, BET1 / RFU, CNOT2 / Fold change vs veh, CNOT2 / RFU, ZNF268 / Fold change vs veh, ZNF268 / Fold change vs veh, ZNF507 / RFU, DGCR2 / Fold change vs veh, DGCR2 / RFU, WDSUB1 / Fold change vs veh, WDSUB1 / Fold change vs veh, HSP90B1 /// MIR3652 / RFU, ADSS / Fold change vs veh, ADSS / RFU, GK / Fold change vs veh, GK / RFU, ZNF148 / Fold change vs veh, ZNF148 / RFU, TAF9 / Fold change vs veh, TAF9 / RFU, SLC1A5 / Fold change vs veh, SLC1A5 / RFU, SLMO2 / Fold change vs veh, SLMO2 / RFU, ABCC4 / Fold change vs veh, ABCC4 / RFU, LOC101060439 /// RAP1B / Fold change vs veh, LOC101060439 /// RAP1B / RFU, RFX7 / Fold change vs veh, RFX7 / RFU, GTPBP10 / Fold change vs veh, GTPBP10 / RFU, CNEP1R1 / Fold change vs veh, CNEP1R1 / RFU, BIVM-ERCC5 /// ERCC5 / Fold change vs veh, BIVM-ERCC5 /// ERCC5 / RFU, ILF3 / Fold change vs veh, ILF3 / RFU 11762660_at / Fold change /veh 11762660_at / RFU VCAN (11757783_s_at) / Fold change /veh VCAN (11757783_s_at) / RFU DDX43 (11728927_at) / Fold change /veh DDX43 (11728927_at) / RFU KRT8 (11758188_x_at) / Fold change /veh KRT8 (11758188_x_at) / RFU NKD1 (11759106_at) / Fold change /veh NKD1 (11759106_at) / RFU SRD5A1 (11742802_a_at) / Fold change /veh SRD5A1 (11742802_a_at) / RFU TPSAB1 /// TPSB2 (11721975_s_at) / Fold change /veh TPSAB1 /// TPSB2 (11721975_s_at) / RFU GSTM3 (11746129_a_at) / Fold change /veh GSTM3 (11746129_a_at) / RFU IL23R (11737362_x_at) / Fold change /veh IL23R (11737362_x_at) / RFU TMEM51 (11727254_a_at) / Fold change /veh TMEM51 (11727254_a_at) / RFU PIWIL2 (11732686_x_at) / Fold change /veh PIWIL2 (11732686_x_at) / RFU ORM1 (11744905_x_at) / Fold change /veh ORM1 (11744905_x_at) / RFU CCDC152 (11743942_at) / Fold change /veh CCDC152 (11743942_at) / RFU ECM1 (11717891_a_at) / Fold change /veh ECM1 (11717891_a_at) / RFU IL23R (11748794_a_at) / Fold change /veh IL23R (11748794_a_at) / RFU TNFAIP8L3 (11732012_x_at) / Fold change /veh TNFAIP8L3 (11732012_x_at) / RFU MBOAT4 (11741988_at) / Fold change /veh MBOAT4 (11741988_at) / RFU 11764193_at / Fold change /veh 11764193_at / RFU TMEM53 (11763286_at) / Fold change /veh TMEM53 (11763286_at) / RFU MAGEB2 (11727129_at) / Fold change /veh MAGEB2 (11727129_at) / RFU TMEM200A (11744735_a_at) / Fold change /veh TMEM200A (11744735_a_at) / RFU CCDC152 (11751479_a_at) / Fold change /veh CCDC152 (11751479_a_at) / RFU FAM211A (11726209_a_at) / Fold change /veh FAM211A (11726209_a_at) / RFU RGS16 (11746705_a_at) / Fold change /veh RGS16 (11746705_a_at) / RFU VCAN (11755009_s_at) / Fold change /veh VCAN (11755009_s_at) / RFU RHOB (11743442_s_at) / Fold change /veh RHOB (11743442_s_at) / RFU RGS16 (11720943_a_at) / Fold change /veh RGS16 (11720943_a_at) / RFU RGS16 (11720944_at) / Fold change /veh RGS16 (11720944_at) / RFU, VPS4B / Fold change vs veh, VPS4B / RFU, CREB1 / Fold change vs veh, CREB1 / RFU, DNAJC13 / Fold change vs veh, DNAJC13 / RFU, GNAQ / Fold change vs veh, GNAQ / RFU, CDK5R1 / Fold change vs veh, CDK5R1 / RFU, ZRANB3 / Fold change vs veh, ZRANB3 / RFU, CUL4A / Fold change vs veh, CUL4A / RFU, CCNY / Fold change vs veh, CCNY / RFU, UFL1 / Fold change vs veh, UFL1 / RFU, COG3 / Fold change vs veh, COG3 / RFU, DIAPH2 / Fold change vs veh, DIAPH2 / RFU, SKA2 / Fold change vs veh, SKA2 / RFU, AFF3 / Fold change vs veh, AFF3 / RFU, LMF1 / Fold change vs veh, LMF1 / RFU, IPO11 / Fold change vs veh, IPO11 / RFU, DFFB / Fold change vs veh, DFFB / RFU, FOXP1 / Fold change vs veh, FOXP1 / RFU, CARD8 / Fold change vs veh, CARD8 / RFU, STRN3 / Fold change vs veh, STRN3 / RFU, ADK / Fold change vs veh, ADK / RFU, RASSF2 / Fold change vs veh, RASSF2 / RFU, WIPF1 / Fold change vs veh, WIPF1 / RFU, LARP1B / Fold change vs veh, LARP1B / RFU, RASA1 / Fold change vs veh, RASA1 / RFU, RB1 / Fold change vs veh, RB1 / RFU, PPFIA1 / Fold change vs veh, PPFIA1 / RFU, MAT2A / Fold change vs veh, MAT2A / RFU, CCT5 / Fold change vs veh, CCT5 / RFU, WDR92 / Fold change vs veh, WDR92 / RFU, CUX1 / Fold change vs veh, CUX1 / RFU, TTC7A / Fold change vs veh, TTC7A / RFU, TMEM135 / Fold change vs veh, TMEM135 / RFU, DEPTOR / Fold change vs veh, DEPTOR / RFU, CPM / Fold change vs veh, CPM / RFU, DNAJB6 / Fold change vs veh, DNAJB6 / RFU, CACNA2D3 / Fold change vs veh, CACNA2D3 / RFU, DTX4 / Fold change vs veh, DTX4 / RFU, TFCP2 / Fold change vs veh, TFCP2 / RFU, GMCL1 /// GMCL1P1 / Fold change vs veh, GMCL1 /// GMCL1P1 / RFU, AEBP2 / Fold change vs veh, AEBP2 / RFU, SNHG1 /// SNORD22 /// SNORD25 /// SNORD26 /// SNORD27 /// SNORD28 /// SNORD29 /// SNORD31 / Fold change vs veh, SNHG1 /// SNORD22 /// SNORD25 /// SNORD26 /// SNORD27 /// SNORD28 /// SNORD29 /// SNORD31 / Fold change (Aza/veh), C12orf56 (ProbeSet 11735607_a_at) / Fold change (ACY-1035/veh), C12orf56 (ProbeSet 11735607_a_at) / Fold change (Aza/veh), FGFR1OP (ProbeSet 11751329_s_at) / Fold change (ACY-1035/veh), FGFR1OP (ProbeSet 11751329_s_at) / Fold change (Aza/veh), VPS36 (ProbeSet 11739960_a_at) / Fold change (ACY-1035/veh), VPS36 (ProbeSet 11739960_a_at) / RFU SYPL1 (11715823_x_at) / Fold change /veh SYPL1 (11715823_x_at) / RFU IGFBP7 (11715501_s_at) / Fold change /veh IGFBP7 (11715501_s_at) / RFU REEP3 (11722064_at) / Fold change /veh REEP3 (11722064_at) / RFU IGLL1 (11728026_x_at) / Fold change /veh IGLL1 (11728026_x_at): dose or concentration left out as unconfirmed
Settings: MV-4-11 cells, 48 hours

With `Nc1ncn([C@@H]2O[C@H](CO)[C@@H](O)[C@H]2O)c(=O)n1` [azacitidine] the “RFU TMPRSS6 (11731388_a_at)” value was 68.82 RFU.
